From publication PMC9115111, “Metalloprotease Gp63-Targeting Novel Glycoside Exhibits Potential Antileishmanial Activity” (Frontiers in Cellular and Infection Microbiology, 2022)

Assays:
LdGp63 = target: T1, LdGp63 (Leishmania donovani, UniProt P23223); assay: Cellular thermal shift assay (CETSA) in promastigotes; format: binding; details: 5 µM, 24 h, heated to 80°C; Gp63 destabilized in untreated lysate
T1 construct: endogenous in cells; host or cells: Leishmania donovani promastigotes (AG83 lab strain per abstract)
Experimental: Control cells were incubated with an equal volume of a vehicle. Following incubation, the parasites were washed with PBS to remove excess drug and harvested in 200 μl of a lysis solution (50 mM HEPES, 150 mM NaCl, 1% Triton X-100 and 1% IGEPAL, 1 mM phenylmethyl sulfonyl fluoride). The lysates were centrifuged at 14,000 g for 20 min at 4°C, and supernatants were transferred to new tubes. Furthermore, the protein concentration was measured using the Pierce BCA protein assay kit. After preparation of lysates, 30 μl (0.8 mg/ml) aliquots of the supernatants were heated individually on a Thermomixer compact (Eppendorf) at different temperatures for 7 min and then cooled at room temperature for 3 min. CETSA samples were separated by SDS-PAGE, and immunoblotting was performed as described previously using a mouse polyclonal anti-LdGp63 catalytic domain antibody (1:500) ([Chakrabarti et al., 2021]).

[1] = test system: L. donovani promastigotes; assay: DCFDA estimation of reactive oxygen species in promastigotes; format: cell-based, Leishmania donovani; details: Gly2-treated promastigotes, 72 h
Experimental: The redox homeostasis of promastigotes was monitored both qualitatively and quantitively by 2',7'-dichlorodihydrofluorescein diacetate (DCFDA) (Life Technologies, USA) staining. The untreated and […]-treated promastigotes (1 × 10^6 cells/ml) were cultured for 72 h. Following incubation, the parasites were harvested, washed with PBS, and stained with H2DCFDA (20 μM) for 20 min at 37°C. Excess stain was removed by washing with PBS, and samples were resuspended in PBS (50 μl) followed by imaging. Fluorescence intensity was determined using an excitation filter at 485 nm and an emission filter at 535 nm using confocal microscope (Nikon Ti eclipse, USA). The samples were also analyzed through BD FACS diva ([Shivappagowdar et al., 2019]).

T1 sequence (P23223 88-565): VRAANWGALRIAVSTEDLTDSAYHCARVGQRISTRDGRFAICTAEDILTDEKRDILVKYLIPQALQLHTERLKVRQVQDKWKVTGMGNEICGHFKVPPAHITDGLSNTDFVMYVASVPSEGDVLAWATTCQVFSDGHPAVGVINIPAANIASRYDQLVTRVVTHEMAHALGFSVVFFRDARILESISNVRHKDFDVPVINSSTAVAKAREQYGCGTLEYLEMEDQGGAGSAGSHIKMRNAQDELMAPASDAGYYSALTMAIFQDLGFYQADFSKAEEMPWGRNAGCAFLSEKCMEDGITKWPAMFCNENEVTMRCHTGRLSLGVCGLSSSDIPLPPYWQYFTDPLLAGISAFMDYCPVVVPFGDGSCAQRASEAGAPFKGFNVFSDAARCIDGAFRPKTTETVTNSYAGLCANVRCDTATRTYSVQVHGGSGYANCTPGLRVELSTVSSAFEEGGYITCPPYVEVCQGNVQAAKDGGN

CC(C)CCOC1O[C@H](CO)[C@@H](O)[C@H](O)[C@H]1O (some centres unmarked) [Gly2]
thermostability of Gp63 in treated lysates (immunoblot) (LdGp63): stable at higher temperature | % DCFDA+ parasites [1]: ~ 50%
